Measurements published in patent US9113629B2, “4-amino-6-(4-substituted-phenyl)-picolinates and 6-amino-2-(4-substituted-phenyl)-pyrimidine-4-carboxylates and their use as herbicides” (DOW AGROSCIENCES LLC, priority 2013, dated 2015).
Where two headings read alike, the source gives them in different places.

Legend:
[1] = test system: Key Broadleaf Weed and Crop Species; test: Post-emergent Test II herbicidal activity (Table 5); type: in vivo; conditions: post-emergence, 336 h, 14 days after application; for pest or weed control at 70 g/ha: application rate 70 g ai/ha; for pest or weed control at 140 g/ha: application rate 140 g ai/ha
Method in brief: (§1)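 Plants grown in Metro-Mix 360 (pH 6.0–6.8) in a greenhouse (~15 h photoperiod, 23–29 °C day) to first or second true leaf stage, then sprayed with compound in acetone/DMSO/aqueous crop-oil-surfactant carrier at 187 L/ha by track sprayer. Injury visually scored 0–100% versus untreated plants after 14 d.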

[2] = test system: Key Grass and Sedge Weeds as well as Grass Crops; test: Post-emergent Test II herbicidal activity (Table 6); type: in vivo; conditions: post-emergence, 336 h; for pest or weed control at 70 g/ha: 70 g ai/ha; for pest or weed control at 140 g/ha: 140 g ai/ha
Method in brief: as §1

[3] = ABUTH: velvetleaf (Abutilon theophrasti), read-out: Visual Growth Reduction (%) 14 Days After Application, ABUTH
[4] = AMARE: redroot pigweed (Amaranthus retroflexus), read-out: Visual Growth Reduction (%) 14 Days After Application, AMARE
[5] = BRSNN: oilseed-rape, canola (Brassica napus), read-out: Visual Growth Reduction (%) 14 Days After Application, BRSNN
[6] = CHEAL: lambsquarters (Chenopodium album), read-out: Visual Growth Reduction (%) 14 Days After Application, CHEAL
[7] = EPHHL: wild poinsettia (Euphorbia heterophylla), read-out: Visual Growth Reduction (%) 14 Days After Application, EPHHL
[8] = HELAN: sunflower (Helianthus annuus), read-out: Visual Growth Reduction (%) 14 Days After Application, HELAN
[9] = VIOTR: wild pansy (Viola tricolor), read-out: Visual Growth Reduction (%) 14 Days After Application, VIOTR
[10] = CYPES: yellow nutsedge (Cyperus esculentus), read-out: Visual Growth Reduction (%) 14 Days After Application, CYPES
[11] = DIGSA: crabgrass (Digitaria sanguinalis), read-out: Visual Growth Reduction (%) 14 Days After Application, DIGSA
[12] = ECHCG: barnyardgrass (Echinochloa crus-galli), read-out: Visual Growth Reduction (%) 14 Days After Application, ECHCG
[13] = ORYSA: rice (Oryza sativa), crop, read-out: Visual Growth Reduction (%) 14 Days After Application, ORYSA
[14] = SETFA: giant foxtail (Setaria faberi), read-out: Visual Growth Reduction (%) 14 Days After Application, SETFA
[15] = SORVU: grain sorghum (Sorghum vulgare), read-out: Visual Growth Reduction (%) 14 Days After Application, SORVU
[16] = TRZSS (wheat, Triticum aestivum), crop, read-out: Visual Growth Reduction (%) 14 Days After Application, TRZSS
[17] = ZEAMX: maize, corn (Zea mays), crop, read-out: Visual Growth Reduction (%) 14 Days After Application, ZEAMX

| Compound | pest or weed control at 70 g/ha [1, 3] | pest or weed control at 140 g/ha [1, 3] | pest or weed control at 70 g/ha [1, 4] | pest or weed control at 140 g/ha [1, 4] | pest or weed control at 70 g/ha [1, 5] | pest or weed control at 140 g/ha [1, 5] | pest or weed control at 70 g/ha [1, 6] | pest or weed control at 140 g/ha [1, 6] | pest or weed control at 70 g/ha [1, 7] | pest or weed control at 140 g/ha [1, 7] | pest or weed control at 70 g/ha [1, 8] | pest or weed control at 140 g/ha [1, 8] | pest or weed control at 70 g/ha [1, 9] | pest or weed control at 140 g/ha [1, 9] | pest or weed control at 70 g/ha [2, 10] | pest or weed control at 140 g/ha [2, 10] | pest or weed control at 70 g/ha [2, 11] | pest or weed control at 140 g/ha [2, 11] | pest or weed control at 70 g/ha [2, 12] | pest or weed control at 140 g/ha [2, 12] | further results |
| --- | --- | --- | --- | --- | --- | --- | --- | --- | --- | --- | --- | --- | --- | --- | --- | --- | --- | --- | --- | --- | --- |
| COC(=O)c1nc(-c2ccc(I)cc2)nc(N)c1OC [Compound 18] | 75 to 84% | 75 to 84% | 0 to 29% | 0 to 29% | 75 to 84% | 95 to 100% | 85 to 94% | 95 to 100% | 95 to 100% | 95 to 100% | 95 to 100% | 95 to 100% | 0 to 29% | 45 to 59% | 95 to 100% | 95 to 100% | 0 to 29% | 30 to 44% | 0 to 29% | 45 to 59% | pest or weed control at 70 g/ha [2, 13]: 0 to 29%; pest or weed control at 140 g/ha [2, 13]: 0 to 29%; pest or weed control at 70 g/ha [2, 14]: 0 to 29%; pest or weed control at 140 g/ha [2, 14]: 0 to 29%; pest or weed control at 70 g/ha [2, 15]: 30 to 44%; pest or weed control at 140 g/ha [2, 15]: 0 to 29%; pest or weed control at 70 g/ha [2, 16]: 30 to 44%; pest or weed control at 140 g/ha [2, 16]: 30 to 44%; pest or weed control at 70 g/ha [2, 17]: 95 to 100%; pest or weed control at 140 g/ha [2, 17]: 95 to 100% |
| COC(=O)c1nc(-c2ccc(OC(F)F)c(F)c2F)c(F)c(N)c1Cl [Compound 103] | 45 to 59% | 45 to 59% | 0 to 29% | 0 to 29% | 0 to 29% | 30 to 44% | 0 to 29% | 85 to 94% | 0 to 29% | 0 to 29% | 75 to 84% | 75 to 84% | 0 to 29% | 0 to 29% | 0 to 29% | 45 to 59% | 0 to 29% | 0 to 29% | 0 to 29% | 0 to 29% | pest or weed control at 70 g/ha [2, 13]: 0 to 29%; pest or weed control at 140 g/ha [2, 13]: 0 to 29%; pest or weed control at 70 g/ha [2, 14]: 0 to 29%; pest or weed control at 140 g/ha [2, 14]: 0 to 29%; pest or weed control at 70 g/ha [2, 15]: 0 to 29%; pest or weed control at 140 g/ha [2, 15]: 0 to 29%; pest or weed control at 70 g/ha [2, 16]: 0 to 29%; pest or weed control at 140 g/ha [2, 16]: 0 to 29%; pest or weed control at 70 g/ha [2, 17]: 0 to 29%; pest or weed control at 140 g/ha [2, 17]: 0 to 29% |
| COc1c(N)nc(-c2ccc(Br)cc2)nc1C(=O)O [Compound 54] | 85 to 94% | 85 to 94% | 95 to 100% | 95 to 100% | 95 to 100% | 95 to 100% | 95 to 100% | 95 to 100% | 95 to 100% | 95 to 100% | 85 to 94% | 95 to 100% | 30 to 44% | 45 to 59% | 45 to 59% | 95 to 100% | 0 to 29% | 60 to 74% | 95 to 100% | 95 to 100% | pest or weed control at 70 g/ha [2, 13]: 0 to 29%; pest or weed control at 140 g/ha [2, 13]: 0 to 29%; pest or weed control at 70 g/ha [2, 14]: 75 to 84%; pest or weed control at 140 g/ha [2, 14]: 75 to 84%; pest or weed control at 70 g/ha [2, 15]: 60 to 74%; pest or weed control at 140 g/ha [2, 15]: 75 to 84%; pest or weed control at 70 g/ha [2, 16]: 45 to 59%; pest or weed control at 140 g/ha [2, 16]: 45 to 59%; pest or weed control at 70 g/ha [2, 17]: 95 to 100%; pest or weed control at 140 g/ha [2, 17]: 95 to 100% |
